We go through 44 compounds from ChEMBL document CHEMBL6103641, “Palladium-Catalyzed Late-Stage Functionalization of Natural Antitumor Drug: Synthesis and Bioactivity of 5-Aryl Camptothecins” (J Nat Prod, 2025).

Holding throughout (format): functional, cell-based
Experiment [1] has as its system A549. As to the kind of experiment: Cytotoxicity against human A549 cells assessed as inhibition of cell viability incubated for 24 hrs by MTT assay. The following applies: A549, 24 h.
Experiment [2] relates to HCT-116. As to the kind of experiment: Cytotoxicity against human HCT-116 cells assessed as inhibition of cell viability incubated for 24 hrs by MTT assay. The following applies: HCT-116, 24 h.
Experiment [3] relates to MCF7. As to the kind of experiment: Cytotoxicity against human MCF7 cells assessed as inhibition of cell viability incubated for 24 hrs by MTT assay. The following applies: MCF7, 24 h.

Take `CCOc1ccc([C@@H]2c3cc4ccccc4nc3-c3cc4c(c(=O)n32)COC(=O)[C@]4(O)CC)cc1`: the results for the IC50 in experiment [1], in experiment [2] and in experiment [3] were 100 nM, over 10000 nM and over 10000 nM, respectively.

Turning to `CC[C@@]1(O)C(=O)OCc2c1cc1n(c2=O)[C@H](c2ccc(C(C)(C)C)cc2)c2cc3ccccc3nc2-1`, the values for the IC50 in experiment [1], in experiment [2] and in experiment [3] were over 10000 nM, 200 nM and over 10000 nM, respectively.

In the case of `CCOC(=O)/C=C/C[C@H]1c2cc3ccccc3nc2-c2cc3c(c(=O)n21)COC(=O)[C@]3(O)CC`, the values for the IC50 in experiment [1], in experiment [2] and in experiment [3] were 10 nM, 400 nM and over 10000 nM, respectively.

Regarding `CC[C@@]1(O)C(=O)OCc2c1cc1n(c2=O)[C@H](c2ccc3ccccc3c2)c2cc3ccccc3nc2-1`, the IC50 in experiment [1] was 700 nM; in experiment [2], over 10000 nM; in experiment [3], over 10000 nM.

For the compound `CC[C@@]1(O)C(=O)OCc2c1cc1n(c2=O)[C@@H](CC=C(C)C)c2cc3ccccc3nc2-1`, the figures for the IC50 in experiment [1], in experiment [2] and in experiment [3] were 20 nM, 500 nM and 60 nM, respectively.

As to `CC[C@@]1(O)C(=O)OCc2c1cc1n(c2=O)[C@H](c2ccccc2F)c2cc3ccccc3nc2-1`, the IC50 in experiment [1] is 10 nM; in experiment [2] it was 500 nM; in experiment [3], over 10000 nM.

Take `CC[C@@]1(O)C(=O)OCc2c1cc1n(c2=O)[C@@H](c2cccc(C(F)(F)F)c2)c2cc3ccccc3nc2-1`: the IC50 in experiment [1], in experiment [2] and in experiment [3] was over 10000 nM each time.

`CC[C@@]1(O)C(=O)OCc2c1cc1n(c2=O)[C@H](c2ccc(Cl)cc2)c2cc3ccccc3nc2-1`: the IC50 was over 10000 nM in experiment [1], 600 nM in experiment [2] and over 10000 nM in experiment [3].

Take `CC[C@@]1(O)C(=O)OCc2c1cc1n(c2=O)[C@H](c2ccc3c(c2)OCCO3)c2cc3ccccc3nc2-1`: the IC50 was 100 nM in experiment [1], 80 nM in experiment [2] and over 10000 nM in experiment [3].

On to `CCOc1ccc([C@H]2c3cc4ccccc4nc3-c3cc4c(c(=O)n32)COC(=O)[C@]4(O)CC)cc1`, for which the values for the IC50 in experiment [1], in experiment [2] and in experiment [3] were 100 nM, over 10000 nM and over 10000 nM, respectively.

Take `CCOC(=O)/C=C/C[C@@H]1c2cc3ccccc3nc2-c2cc3c(c(=O)n21)COC(=O)[C@]3(O)CC`: the results for the IC50 in experiment [1], in experiment [2] and in experiment [3] were 10 nM, 300 nM and 400 nM, respectively.

On to `CCc1ccc(-c2ccc([C@@H]3c4cc5ccccc5nc4-c4cc5c(c(=O)n43)COC(=O)[C@]5(O)CC)cc2)cc1`, for which the figures for the IC50 in experiment [1], in experiment [2] and in experiment [3] were 800 nM, 200 nM and over 10000 nM, respectively.

For `C=CC[C@H]1c2cc3ccccc3nc2-c2cc3c(c(=O)n21)COC(=O)[C@]3(O)CC`, the IC50 in experiment [1] was over 10000 nM; in experiment [2], 400 nM; in experiment [3], over 10000 nM.

Turning to `CC[C@@]1(O)C(=O)OCc2c1cc1n(c2=O)[C@H](c2c(C)cccc2C)c2cc3ccccc3nc2-1`, the IC50 in experiment [1] is over 10000 nM; in experiment [2], 300 nM; in experiment [3], over 10000 nM.

On to `CC[C@@]1(O)C(=O)OCc2c1cc1n(c2=O)[C@@H](c2ccc3c(c2)OCO3)c2cc3ccccc3nc2-1`, for which the IC50 in experiment [1] was 500 nM; in experiment [2], over 10000 nM; in experiment [3], over 10000 nM.

In the case of `CC[C@@]1(O)C(=O)OCc2c1cc1n(c2=O)[C@H](c2ccc(F)cc2)c2cc3ccccc3nc2-1`, the IC50 in experiment [1] is 400 nM; in experiment [2], over 10000 nM; in experiment [3] it was 100 nM.

Consider `CC[C@@]1(O)C(=O)OCc2c1cc1n(c2=O)[C@@H](c2ccccc2F)c2cc3ccccc3nc2-1`, for which the IC50 is 40 nM in experiment [1], over 10000 nM in experiment [2] and over 10000 nM in experiment [3].

Turning to `CC[C@@]1(O)C(=O)OCc2c1cc1n(c2=O)[C@H](c2ccc3c(c2)OCO3)c2cc3ccccc3nc2-1`, the IC50 in experiment [1] is 100 nM; in experiment [2], 50 nM; in experiment [3], over 10000 nM.

Turning to `CC[C@@]1(O)C(=O)OCc2c1cc1n(c2=O)[C@@H](c2ccccc2Cl)c2cc3ccccc3nc2-1`, the IC50 in experiment [1] was over 10000 nM; in experiment [2], over 10000 nM; in experiment [3], 100 nM.

`CC[C@@]1(O)C(=O)OCc2c1cc1n(c2=O)[C@H](c2ccccc2Cl)c2cc3ccccc3nc2-1`: the figures for the IC50 in experiment [1], in experiment [2] and in experiment [3] were over 10000 nM, over 10000 nM and 600 nM, respectively.

In the case of `CC[C@@]1(O)C(=O)OCc2c1cc1n(c2=O)[C@@H](c2ccc(F)cc2)c2cc3ccccc3nc2-1`, the IC50 in experiment [1] was over 10000 nM; in experiment [2], over 10000 nM; in experiment [3] it was 100 nM.

On to `CC[C@@]1(O)C(=O)OCc2c1cc1n(c2=O)[C@H](c2cccc(C(F)(F)F)c2)c2cc3ccccc3nc2-1`, for which the IC50 was over 10000 nM in experiment [1], 1200 nM in experiment [2] and 70 nM in experiment [3].

Take `C=Cc1ccc([C@@H]2c3cc4ccccc4nc3-c3cc4c(c(=O)n32)COC(=O)[C@]4(O)CC)cc1`: the IC50 in experiment [1] was over 10000 nM; in experiment [2] it was 900 nM; in experiment [3], 100 nM.

As to `CC[C@@]1(O)C(=O)OCc2c1cc1n(c2=O)[C@H](c2c(OC)cccc2OC)c2cc3ccccc3nc2-1`, the results for the IC50 in experiment [1], in experiment [2] and in experiment [3] were over 10000 nM, over 10000 nM and 400 nM, respectively.

On to `C=Cc1ccc([C@H]2c3cc4ccccc4nc3-c3cc4c(c(=O)n32)COC(=O)[C@]4(O)CC)cc1`, for which the figures for the IC50 in experiment [1], in experiment [2] and in experiment [3] were over 10000 nM, 800 nM and 600 nM, respectively.

As to `CC[C@@]1(O)C(=O)OCc2c1cc1n(c2=O)[C@@H](c2ccccc2C(C)C)c2cc3ccccc3nc2-1`, the IC50 in experiment [1] was 10 nM; in experiment [2], 600 nM; in experiment [3], over 10000 nM.

As to `CC[C@@]1(O)C(=O)OCc2c1cc1n(c2=O)[C@@H](c2ccccc2C)c2cc3ccccc3nc2-1`, the IC50 in experiment [1] was over 10000 nM; in experiment [2], 200 nM; in experiment [3], over 10000 nM.

As to `CC[C@@]1(O)C(=O)OCc2c1cc1n(c2=O)[C@H](c2ccccc2C)c2cc3ccccc3nc2-1`, the figures for the IC50 in experiment [1], in experiment [2] and in experiment [3] were over 10000 nM, 200 nM and over 10000 nM, respectively.

`CC[C@@]1(O)C(=O)OCc2c1cc1n(c2=O)[C@@H](c2ccc(Cl)cc2)c2cc3ccccc3nc2-1`: the IC50 in experiment [1], in experiment [2] and in experiment [3] was over 10000 nM in each case.

As for `CC[C@@]1(O)C(=O)OCc2c1cc1n(c2=O)[C@H](c2cccc(OC)c2)c2cc3ccccc3nc2-1`, the IC50 is 200 nM in experiment [1], over 10000 nM in experiment [2] and over 10000 nM in experiment [3].

For the compound `CC[C@@]1(O)C(=O)OCc2c1cc1n(c2=O)[C@@H](c2cccc(F)c2C)c2cc3ccccc3nc2-1`, the IC50 in experiment [1] is 10 nM; in experiment [2] it was 900 nM; in experiment [3] it was over 10000 nM.

With `CC[C@@]1(O)C(=O)OCc2c1cc1n(c2=O)Cc2cc3ccccc3nc2-1` [CAMPTOTHECIN], the IC50 came out at 300 nM in experiment [1], 300 nM in experiment [2] and 900 nM in experiment [3].

As for `CC[C@@]1(O)C(=O)OCc2c1cc1n(c2=O)[C@H](c2ccccc2C(C)C)c2cc3ccccc3nc2-1`, the IC50 in experiment [1] came out at 10 nM; in experiment [2] it was 100 nM; in experiment [3] it was 9200 nM.

Turning to `CC[C@@]1(O)C(=O)OCc2c1cc1n(c2=O)[C@H](c2cccc(CBr)c2)c2cc3ccccc3nc2-1`, the IC50 was 1100 nM in experiment [1], 9300 nM in experiment [2] and over 10000 nM in experiment [3].

As for `CC[C@@]1(O)C(=O)OCc2c1cc1n(c2=O)[C@H](c2ccc(-c3cccc4ccccc34)cc2)c2cc3ccccc3nc2-1`, the IC50 in experiment [1] was over 10000 nM; in experiment [2], 700 nM; in experiment [3], 1100 nM.

As for `CC[C@@]1(O)C(=O)OCc2c1cc1n(c2=O)[C@@H](c2c(C)cccc2C)c2cc3ccccc3nc2-1`, the IC50 is over 10000 nM in experiment [1], 1100 nM in experiment [2] and over 10000 nM in experiment [3].

For `CC[C@@]1(O)C(=O)OCc2c1cc1n(c2=O)[C@H](CC=C(C)C)c2cc3ccccc3nc2-1`, the IC50 stood at 1200 nM in experiment [1], 600 nM in experiment [2] and 100 nM in experiment [3].

For `CC[C@@]1(O)C(=O)OCc2c1cc1n(c2=O)[C@@H](c2ccc(-c3cccc4ccccc34)cc2)c2cc3ccccc3nc2-1`, the IC50 in experiment [1], in experiment [2] and in experiment [3] was over 10000 nM in each case.

Turning to `CC[C@@]1(O)C(=O)OCc2c1cc1n(c2=O)[C@@H](c2cccc(-c3ccccc3)c2)c2cc3ccccc3nc2-1`, the IC50 in experiment [1] was 8900 nM; in experiment [2], over 10000 nM; in experiment [3] it was over 10000 nM.

Regarding `CC[C@@]1(O)C(=O)OCc2c1cc1n(c2=O)[C@@H](c2cccc(OC)c2)c2cc3ccccc3nc2-1`, the IC50 in experiment [1] was 1100 nM; in experiment [2], over 10000 nM; in experiment [3], over 10000 nM.

For `C=CC[C@@H]1c2cc3ccccc3nc2-c2cc3c(c(=O)n21)COC(=O)[C@]3(O)CC`, the IC50 in experiment [1] was over 10000 nM; in experiment [2], 300 nM; in experiment [3] it was 900 nM.

As for `CC[C@@]1(O)C(=O)OCc2c1cc1n(c2=O)[C@H](c2cccc(-c3ccccc3)c2)c2cc3ccccc3nc2-1`, the figures for the IC50 in experiment [1], in experiment [2] and in experiment [3] were 900 nM, over 10000 nM and over 10000 nM, respectively.

For the compound `CC[C@@]1(O)C(=O)OCc2c1cc1n(c2=O)[C@H](c2cccc(F)c2C)c2cc3ccccc3nc2-1`, the IC50 in experiment [1] was 10 nM; in experiment [2], 10400 nM; in experiment [3] it was over 10000 nM.

As to `CC[C@@]1(O)C(=O)OCc2c1cc1n(c2=O)[C@@H](c2cc(C)cc(C)c2)c2cc3ccccc3nc2-1`, the results for the IC50 in experiment [1], in experiment [2] and in experiment [3] were over 10000 nM, over 10000 nM and 160 nM, respectively.
